The target of assay [1] is T1, Neuropeptide Y receptor type 1 (Homo sapiens, UniProt P25929). In kind it is functional.
The target of assay [2] is T2, Neuropeptide Y receptor type 2 (Homo sapiens, UniProt P49146). In kind it is functional, cell-based.
A short description of assay [3]: Luminescence Cell-Based Dose Confirmation to Identify Activators of 5'UTR Stem-Loop Driven Alpha-Synuclein mRNA Translation in H4 Neuroglioblastoma Cells. [Related pubchem assays: 1829 (Project Summary), 1814 (Primary HTS)]. The format is functional.
The target of a further assay is Vasopressin V1a receptor (Homo sapiens, UniProt P37288). Nature of the assay: Fluorescence-based cell-based high throughput dose response screening assay for agonists of the vasopressin 1 receptor (V1R). In kind it is functional.
Assay [4] addresses T3, Heat shock factor protein 1 (Mus musculus, UniProt P38532).
T3 sequence (P38532 whole entry): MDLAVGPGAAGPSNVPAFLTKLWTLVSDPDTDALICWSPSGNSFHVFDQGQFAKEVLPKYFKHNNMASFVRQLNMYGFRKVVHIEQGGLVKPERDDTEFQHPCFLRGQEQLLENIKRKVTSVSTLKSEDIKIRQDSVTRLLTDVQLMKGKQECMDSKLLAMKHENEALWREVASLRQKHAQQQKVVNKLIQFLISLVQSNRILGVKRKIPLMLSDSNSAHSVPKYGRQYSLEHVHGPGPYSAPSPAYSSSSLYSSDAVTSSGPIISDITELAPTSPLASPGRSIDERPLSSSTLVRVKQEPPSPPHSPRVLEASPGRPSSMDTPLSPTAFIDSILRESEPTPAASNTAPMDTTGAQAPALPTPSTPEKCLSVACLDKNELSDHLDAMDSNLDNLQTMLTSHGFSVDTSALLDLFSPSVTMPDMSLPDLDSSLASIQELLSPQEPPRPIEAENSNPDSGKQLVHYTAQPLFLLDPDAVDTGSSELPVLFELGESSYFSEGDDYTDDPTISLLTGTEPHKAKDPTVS
Nature of the assay: decrease of HSF1-responsive luciferase luminescence – cell-based, NIH3T3, dose retest, confirmation (AID 2382).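 Also: NIH3T3 fibroblasts with HSF1-driven luciferase reporter stressed by proteasome inhibitor MG132; luminescence from HSF1-driven luciferase expression after 8 hours of MG132 stress.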 The format is functional.

Assay [5] is described as follows: Luminescence Cell-Based Dose Response to Identify Activators of Luciferase Translation or Activity in H4-C Neuroglioblastoma Cells. [Related pubchem assays: 1829 (Project Summary), 1814 (Primary HTS)]. In kind it is functional.
Another assay concerns the target Oxytocin receptor (Homo sapiens, UniProt P30559). The experiment in a line: Counterscreen for vasopressin 1 receptor (V1R) agonists: Fluorescence-based cell-based high throughput dose response assay for agonists of the Oxytocin Receptor (OXTR). [Related pubchem assays: 2435 (Primary screen (OXTR agonists in singlicate)), 434964 (Confirmation screen (V1R agonists in triplicate)), 434969 (Counterscreen (OXTR agonists in …. The format is functional. A general note: A counterscreen serves to expose hits that act by an unwanted route or on another target.

The next assay deals with H4. The experiment in a line: Luminescence Cell-Based Dose Response HTS to Identify Activators of 5'UTR Stem-Loop Driven Prion Protein mRNA Translation in H4 Neuroglioblastoma Cells. [Related pubchem assays: 1829 (Project Summary), 1814 (Primary HTS)]. In kind it is functional. As to conditions: Homo sapiens.
The nature of assay [6]: Luminescence Cell-Based Dose Response to Identify Activators of 5'UTR Stem-Loop Driven Prion Protein mRNA Translation in H4-C Neuroglioblastoma Cells. [Related pubchem assays: 1829 (Project Summary), 1814 (Primary HTS)]. In kind it is functional.
The nature of assay [7]: A High Throughput Confirmatory Assay used to Identify Novel Compounds that Inhibit Mycobacterium Tuberculosis in the absence of Glycerol. In kind it is functional.
Assay [8] concerns the target T1, Neuropeptide Y receptor type 1. The experiment in a line: IC50 of human NPY-Y1 blockers – cell-based, dose response (AID 1277). In kind it is functional.
In assay [9] the target is T4, Kappa-type opioid receptor (Homo sapiens, UniProt P41145). In kind it is functional.
The target in assay [10] is T4, Kappa-type opioid receptor. The format is functional. The source holds these as a separate data set.
Assay [11] addresses T2, Neuropeptide Y receptor type 2. Nature of the assay: IC50 for human NPY-Y2 blockade – cell-based, counter-screen for NPY-Y1 antagonist project, dose response (AID 1278). In kind it is functional.
A further assay deals with Mu-type opioid receptor (Homo sapiens, UniProt P35372). The experiment in a line: HTS Image-Based Screen for Agonists of the MOR Receptor. [Related pubchem assays (depositor defined):AID1777, AID1785, AID1786, AID2133]. The format is functional.
In assay [12] the target is T5, Delta-type opioid receptor (Homo sapiens, UniProt P41143). The experiment in a line: HTS Image-Based Screen for Antagonists of the DOR Receptor. [Related pubchem assays (depositor defined):AID1777, AID1785, AID1786, AID2133]. In kind it is functional.
In assay [13] the target is T5, Delta-type opioid receptor. The experiment in a line: HTS Image-Based Screen for Agonists of the DOR Receptor. [Related pubchem assays (depositor defined):AID1777, AID1786, AID2133]. In kind it is functional.

Calls of active or inactive are those of the source.

T2 sequence (P49146 whole entry): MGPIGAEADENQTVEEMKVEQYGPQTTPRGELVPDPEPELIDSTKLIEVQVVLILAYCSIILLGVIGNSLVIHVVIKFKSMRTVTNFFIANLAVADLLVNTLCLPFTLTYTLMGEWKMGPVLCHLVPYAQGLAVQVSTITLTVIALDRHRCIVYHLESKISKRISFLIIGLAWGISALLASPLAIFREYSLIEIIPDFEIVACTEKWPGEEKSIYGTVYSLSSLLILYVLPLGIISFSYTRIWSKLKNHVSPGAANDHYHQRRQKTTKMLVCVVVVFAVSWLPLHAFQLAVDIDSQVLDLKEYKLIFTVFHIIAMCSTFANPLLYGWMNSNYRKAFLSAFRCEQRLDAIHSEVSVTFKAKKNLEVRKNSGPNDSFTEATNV
T5 sequence (P41143 whole entry): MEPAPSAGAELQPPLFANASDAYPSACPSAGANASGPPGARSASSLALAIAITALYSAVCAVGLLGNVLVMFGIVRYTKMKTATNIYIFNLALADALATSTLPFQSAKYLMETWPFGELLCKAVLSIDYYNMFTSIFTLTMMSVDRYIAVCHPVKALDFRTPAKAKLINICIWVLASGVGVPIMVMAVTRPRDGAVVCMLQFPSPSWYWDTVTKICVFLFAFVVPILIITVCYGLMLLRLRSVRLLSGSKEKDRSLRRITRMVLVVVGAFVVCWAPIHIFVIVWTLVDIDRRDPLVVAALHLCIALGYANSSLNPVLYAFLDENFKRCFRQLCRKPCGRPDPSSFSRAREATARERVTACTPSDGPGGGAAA
T1 sequence (P25929 whole entry): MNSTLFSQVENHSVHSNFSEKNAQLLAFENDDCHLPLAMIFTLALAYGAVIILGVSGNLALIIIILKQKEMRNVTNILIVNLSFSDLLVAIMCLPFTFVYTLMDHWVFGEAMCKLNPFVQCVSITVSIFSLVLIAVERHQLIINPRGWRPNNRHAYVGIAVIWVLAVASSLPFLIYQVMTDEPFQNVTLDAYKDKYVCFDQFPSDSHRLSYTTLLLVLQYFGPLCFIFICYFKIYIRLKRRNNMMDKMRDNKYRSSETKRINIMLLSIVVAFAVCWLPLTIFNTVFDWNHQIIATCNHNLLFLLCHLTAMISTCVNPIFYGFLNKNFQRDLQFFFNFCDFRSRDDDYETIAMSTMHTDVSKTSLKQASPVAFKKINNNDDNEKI
T4 sequence (P41145 whole entry): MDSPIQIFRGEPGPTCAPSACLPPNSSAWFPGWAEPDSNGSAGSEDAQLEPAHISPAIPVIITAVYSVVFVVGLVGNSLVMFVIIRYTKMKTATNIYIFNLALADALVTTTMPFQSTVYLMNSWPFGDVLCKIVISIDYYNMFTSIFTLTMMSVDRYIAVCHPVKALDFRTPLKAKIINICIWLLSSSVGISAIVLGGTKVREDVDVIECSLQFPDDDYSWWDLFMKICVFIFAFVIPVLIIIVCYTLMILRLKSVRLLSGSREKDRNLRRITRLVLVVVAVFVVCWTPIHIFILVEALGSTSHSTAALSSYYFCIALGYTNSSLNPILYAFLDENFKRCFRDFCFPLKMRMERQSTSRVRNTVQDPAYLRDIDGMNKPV
Mu-type opioid receptor, sequence (P35372 whole entry): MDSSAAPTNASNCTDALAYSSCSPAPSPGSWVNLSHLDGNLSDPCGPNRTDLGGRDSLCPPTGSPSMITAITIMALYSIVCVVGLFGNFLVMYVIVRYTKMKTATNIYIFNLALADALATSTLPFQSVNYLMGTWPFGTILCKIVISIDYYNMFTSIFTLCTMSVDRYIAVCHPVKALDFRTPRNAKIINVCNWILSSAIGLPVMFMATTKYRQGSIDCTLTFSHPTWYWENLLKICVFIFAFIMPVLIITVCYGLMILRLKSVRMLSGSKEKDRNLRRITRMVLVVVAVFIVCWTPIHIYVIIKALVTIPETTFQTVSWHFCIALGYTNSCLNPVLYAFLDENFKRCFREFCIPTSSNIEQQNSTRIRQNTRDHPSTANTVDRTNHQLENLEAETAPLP
Vasopressin V1a receptor, sequence (P37288 whole entry): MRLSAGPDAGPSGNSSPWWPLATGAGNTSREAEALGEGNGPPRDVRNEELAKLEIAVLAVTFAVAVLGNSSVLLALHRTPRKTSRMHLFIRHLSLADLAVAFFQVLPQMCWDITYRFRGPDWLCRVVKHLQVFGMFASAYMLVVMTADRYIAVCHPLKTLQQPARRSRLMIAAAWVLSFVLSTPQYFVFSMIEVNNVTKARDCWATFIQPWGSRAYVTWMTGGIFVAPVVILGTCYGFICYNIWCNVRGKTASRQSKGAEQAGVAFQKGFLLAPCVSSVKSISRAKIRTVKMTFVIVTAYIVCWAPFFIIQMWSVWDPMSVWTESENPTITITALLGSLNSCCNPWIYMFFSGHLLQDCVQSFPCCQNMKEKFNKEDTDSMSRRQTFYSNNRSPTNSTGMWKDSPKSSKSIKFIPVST
Oxytocin receptor, sequence (P30559 whole entry): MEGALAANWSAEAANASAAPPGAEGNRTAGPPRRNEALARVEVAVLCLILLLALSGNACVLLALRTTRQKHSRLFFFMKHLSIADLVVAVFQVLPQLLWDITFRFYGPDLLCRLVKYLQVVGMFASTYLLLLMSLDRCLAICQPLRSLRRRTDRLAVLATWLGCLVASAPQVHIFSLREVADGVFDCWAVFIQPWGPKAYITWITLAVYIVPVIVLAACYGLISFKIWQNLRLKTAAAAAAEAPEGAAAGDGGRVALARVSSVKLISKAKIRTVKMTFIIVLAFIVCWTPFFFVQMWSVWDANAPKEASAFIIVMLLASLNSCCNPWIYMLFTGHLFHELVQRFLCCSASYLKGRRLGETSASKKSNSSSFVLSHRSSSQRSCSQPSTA

As usually defined, the IC50 is the concentration at which inhibition is half-maximal. Take `CN1CCC(Oc2ccccc2Sc2ccccc2)CC1`: the IC50 in assay [1] is listed as 13.6 µM (not active); in [2] it was 17.5 µM (not active).
Broadly, the EC50 is the concentration giving half of the maximal effect. As to `CCN1C(=S)SC(=O)C1=C1C=C(C)N(Cc2ccco2)C(C)=C1`, the concentration for a half-maximal effect (EC50) in [3] was 0.287 µM (active); at Vasopressin V1a receptor, 10.5 µM (not active); in assay [4] it was > 195 µM (not active); in assay [5], 0.263 µM (active); at Oxytocin receptor it was 16.7 µM (not active); in the assay on H4, < 0.1 µM (active). Besides, the EC50 in assay [6] is 0.313 µM (active).
Turning to `Cc1ccc(S(=O)(=O)NCc2ccc(C(=O)NCCCN3CCC(Cc4ccccc4)CC3)cc2)cc1`, the half-maximal inhibitory concentration (IC50) in assay [7] is > 100 µM (active).
In the case of `O=C(c1cnccn1)N(Cc1ccco1)C1(C(=O)NC2CCCCC2)CCCCC1`, the concentration for half-maximal inhibition (IC50) in assay [8] was > 35 µM (not active); in assay [11], > 35 µM (not active); in assay [12] it was > 32 µM (inactive). Besides, the half-maximal effective concentration (EC50) in [9] is 2.39 µM; in assay [10], 1.32 µM; on Mu-type opioid receptor, > 32 µM (inactive); in assay [13] it was > 32 µM (inactive).

For the origin of these results see ChEMBL document CHEMBL1201862, “PubChem BioAssay data set” (2004).
